The record followed here is US20160025704A1, “METHODS FOR IDENTIFYING NEUROPROTECTIVE PKC ACTIVATORS” (priority 2013, published 2016).

The subject of this assay is mTBI mice. The experiment in a line: Minimal traumatic brain injury, MWM cognitive test. The assay is classed as in vivo. The conditions noted are these: 5× i.p. over 14 days; for mTBI induced learning deficits (MWM): injured mice. As for the experimental part: Protocol: One hour after the minimal traumatic brain injury was induced, the mice received a 5×i.p. bryostatin-1 injection treatment over a period of 14 days, in two injection doses 20 and 30 μg/kg (N=9 in each group). One hour after the last injection of the series, the cognitive ability of the mice was tested in the MWM. Mice were tested for 4 days 6 times a day. On day 5 the platform was removed and the mice memory retention was tested. […] Data was analyzed using repeated measure one way ANOVA and presented as mean±S.E.M. Both doses protected the learning abilities of the injured mice (pb0.01).

Turning to `CCC/C=C/C=C/C(=O)O[C@H]1/C(=C/C(=O)OC)C[C@H]2C[C@H]([C@@H](C)O)OC(=O)C[C@H](O)C[C@@H]3C[C@H](OC(C)=O)C(C)(C)[C@](O)(C[C@@H]4C/C(=C/C(=O)OC)C[C@H](/C=C/C(C)(C)[C@]1(O)O2)O4)O3` [Bryostatin, bryostatin-1], under “20 μg/kg”, the “acquisition of the learning task, mTBI group versus control mice” value is on record as “improved their acquisition of the learning task even beyond that of control mice”; the “learning of control uninjured mice” value is listed as “no effect on uninjured mice”; the “mTBI induced learning deficits (MWM)” value is “protected against the mTBI induced learning deficits”. Also, under “30 μg/kg”, the “learning of control uninjured mice” value was “improved the learning of control uninjured mice” and the “mTBI induced learning deficits (MWM)” value is given as “protected against the mTBI induced learning deficits”.
